Measurements as given in ChEMBL document CHEMBL1909046, “DrugMatrix in vitro pharmacology data”.

molecular target: Melanocortin receptor 3 (Homo sapiens, UniProt P41968); type: cell membranes, HEK293, Membrane; conditions: hek293; note: in other assays of this panel Not Active means under 50% inhibition at 10 µM
Sequence (P41968 whole entry): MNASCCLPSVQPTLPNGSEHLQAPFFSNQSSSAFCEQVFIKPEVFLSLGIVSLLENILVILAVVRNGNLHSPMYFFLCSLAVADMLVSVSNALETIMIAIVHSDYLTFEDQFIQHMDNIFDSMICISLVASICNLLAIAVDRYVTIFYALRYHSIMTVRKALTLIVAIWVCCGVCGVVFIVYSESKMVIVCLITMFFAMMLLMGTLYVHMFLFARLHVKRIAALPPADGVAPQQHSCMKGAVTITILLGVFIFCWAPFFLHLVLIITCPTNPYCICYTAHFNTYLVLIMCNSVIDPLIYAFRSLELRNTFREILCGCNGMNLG

Structure (SMILES) | IC50
CC12CCC(CC1)C(C)(C)O2 [EUCALYPTOL] | Not Active
Nc1nc(N)c2nc(CNc3ccc(C(=O)N[C@@H](CCC(=O)O)C(=O)O)cc3)cnc2n1 [AMINOPTERIN] | Not Active
Nc1ccc(Cc2ccc(N)cc2)cc1 | Not Active
COc1ccccc1OCCNCC(O)COc1cccc2[nH]c3ccccc3c12 (stereo not drawn) [CARVEDILOL] | Not Active
CCN1CCN(c2cc3c(cc2F)c(=O)c(C(=O)O)cn3C2CC2)CC1 [ENROFLOXACIN] | Not Active
CC(C)Cc1ccc([C@H](C)C(=O)O)cc1 [DEXIBUPROFEN] | Not Active
CO[C@H]1O[C@@H]2O[C@@]3(C)CC[C@H]4[C@H](C)CC[C@@H]([C@H]1C)[C@@]24OO3 | Not Active
Nc1ccc(C(=O)O)c(O)c1 [AMINOSALICYLIC ACID] | Not Active

molecular target: T1, Cytochrome P450 1A2 (Homo sapiens, UniProt P05177); conditions: bti-tn-5b1-4; note: in other assays of this panel Not Active means under 50% inhibition at 10 µM
T1 sequence (P05177 whole entry): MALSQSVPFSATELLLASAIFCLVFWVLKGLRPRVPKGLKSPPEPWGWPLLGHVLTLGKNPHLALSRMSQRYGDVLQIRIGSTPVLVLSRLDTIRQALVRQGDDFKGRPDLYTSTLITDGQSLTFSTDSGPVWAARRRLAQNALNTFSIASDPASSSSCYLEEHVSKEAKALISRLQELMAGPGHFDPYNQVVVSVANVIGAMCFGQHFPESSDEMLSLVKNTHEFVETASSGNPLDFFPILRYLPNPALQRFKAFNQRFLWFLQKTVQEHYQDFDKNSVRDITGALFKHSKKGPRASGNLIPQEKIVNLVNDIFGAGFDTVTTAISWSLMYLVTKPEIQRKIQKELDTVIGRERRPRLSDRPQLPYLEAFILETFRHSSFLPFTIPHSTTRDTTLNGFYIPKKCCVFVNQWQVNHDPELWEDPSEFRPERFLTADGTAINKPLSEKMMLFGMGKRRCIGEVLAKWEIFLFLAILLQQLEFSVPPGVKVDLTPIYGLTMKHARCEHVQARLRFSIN

Structure (SMILES) | IC50 | Ki
CC12CCC(CC1)C(C)(C)O2 [EUCALYPTOL] | Not Active | Not Active
Nc1nc(N)c2nc(CNc3ccc(C(=O)N[C@@H](CCC(=O)O)C(=O)O)cc3)cnc2n1 [AMINOPTERIN] | Not Active | Not Active
Nc1ccc(Cc2ccc(N)cc2)cc1 | Not Active | Not Active
COc1ccccc1OCCNCC(O)COc1cccc2[nH]c3ccccc3c12 (stereo not drawn) [CARVEDILOL] | Not Active | Not Active
CCN1CCN(c2cc3c(cc2F)c(=O)c(C(=O)O)cn3C2CC2)CC1 [ENROFLOXACIN] | Not Active | Not Active
CC(C)Cc1ccc([C@H](C)C(=O)O)cc1 [DEXIBUPROFEN] | Not Active | Not Active
CO[C@H]1O[C@@H]2O[C@@]3(C)CC[C@H]4[C@H](C)CC[C@@H]([C@H]1C)[C@@]24OO3 | Not Active | Not Active
Nc1ccc(C(=O)O)c(O)c1 [AMINOSALICYLIC ACID] | Not Active | Not Active

molecular target: Carbonic anhydrase 2 (Homo sapiens, UniProt P00918); assay: DRUGMATRIX: Carbonic Anhydrase II enzyme inhibition (substrate: 4-Nitrophenyl acetate (4-NPA)); type: tissue-based, Erythrocyte; conditions: erythrocyte; Not Active = under 50% inhibition at 10 µM

Structure (SMILES) | IC50
CC12CCC(CC1)C(C)(C)O2 [EUCALYPTOL] | Not Active
Nc1nc(N)c2nc(CNc3ccc(C(=O)N[C@@H](CCC(=O)O)C(=O)O)cc3)cnc2n1 [AMINOPTERIN] | Not Active
Nc1ccc(Cc2ccc(N)cc2)cc1 | Not Active
COc1ccccc1OCCNCC(O)COc1cccc2[nH]c3ccccc3c12 (stereo not drawn) [CARVEDILOL] | Not Active
CCN1CCN(c2cc3c(cc2F)c(=O)c(C(=O)O)cn3C2CC2)CC1 [ENROFLOXACIN] | Not Active
CC(C)Cc1ccc([C@H](C)C(=O)O)cc1 [DEXIBUPROFEN] | Not Active
CO[C@H]1O[C@@H]2O[C@@]3(C)CC[C@H]4[C@H](C)CC[C@@H]([C@H]1C)[C@@]24OO3 | Not Active
Nc1ccc(C(=O)O)c(O)c1 [AMINOSALICYLIC ACID] | Not Active

molecular target: T2, 3-hydroxy-3-methylglutaryl-coenzyme A reductase (Homo sapiens, UniProt P04035); parameters: species or system Escherichia coli; conditions: not given;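 note: enzyme inhibition assay of HMG-CoA reductase using radiolabeled [14C]HMG-CoA as substrate; in other assays of this panel Not Active means under 50% inhibition at 10 µM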
T2 sequence (P04035 whole entry): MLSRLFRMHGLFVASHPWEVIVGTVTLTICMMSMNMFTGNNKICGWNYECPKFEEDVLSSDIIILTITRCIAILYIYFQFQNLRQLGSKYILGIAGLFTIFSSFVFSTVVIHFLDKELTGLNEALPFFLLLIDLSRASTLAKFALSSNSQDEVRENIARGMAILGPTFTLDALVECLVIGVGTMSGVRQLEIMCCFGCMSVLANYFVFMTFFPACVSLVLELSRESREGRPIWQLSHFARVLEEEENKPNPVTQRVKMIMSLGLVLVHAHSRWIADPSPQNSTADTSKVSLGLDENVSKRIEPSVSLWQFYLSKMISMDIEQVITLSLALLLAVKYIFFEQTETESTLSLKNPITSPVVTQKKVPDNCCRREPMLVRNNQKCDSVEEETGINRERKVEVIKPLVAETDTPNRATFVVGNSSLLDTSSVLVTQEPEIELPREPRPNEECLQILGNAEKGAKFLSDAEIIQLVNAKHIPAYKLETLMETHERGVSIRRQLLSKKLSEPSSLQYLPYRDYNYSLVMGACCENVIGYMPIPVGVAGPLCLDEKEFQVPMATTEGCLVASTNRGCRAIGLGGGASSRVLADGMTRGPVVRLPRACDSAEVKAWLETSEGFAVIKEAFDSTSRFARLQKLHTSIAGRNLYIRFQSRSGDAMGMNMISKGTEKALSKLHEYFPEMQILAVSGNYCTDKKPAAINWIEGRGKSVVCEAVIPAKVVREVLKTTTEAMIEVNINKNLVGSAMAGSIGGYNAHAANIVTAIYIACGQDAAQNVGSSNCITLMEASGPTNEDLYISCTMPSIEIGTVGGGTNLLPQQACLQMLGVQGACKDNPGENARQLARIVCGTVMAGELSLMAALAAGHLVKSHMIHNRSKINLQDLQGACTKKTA

Structure (SMILES) | IC50
CC12CCC(CC1)C(C)(C)O2 [EUCALYPTOL] | Not Active
Nc1nc(N)c2nc(CNc3ccc(C(=O)N[C@@H](CCC(=O)O)C(=O)O)cc3)cnc2n1 [AMINOPTERIN] | Not Active
Nc1ccc(Cc2ccc(N)cc2)cc1 | Not Active
COc1ccccc1OCCNCC(O)COc1cccc2[nH]c3ccccc3c12 (stereo not drawn) [CARVEDILOL] | Not Active
CCN1CCN(c2cc3c(cc2F)c(=O)c(C(=O)O)cn3C2CC2)CC1 [ENROFLOXACIN] | Not Active
CC(C)Cc1ccc([C@H](C)C(=O)O)cc1 [DEXIBUPROFEN] | Not Active
CO[C@H]1O[C@@H]2O[C@@]3(C)CC[C@H]4[C@H](C)CC[C@@H]([C@H]1C)[C@@]24OO3 | Not Active
Nc1ccc(C(=O)O)c(O)c1 [AMINOSALICYLIC ACID] | Not Active

molecular target: 5-hydroxytryptamine receptor 2B (Homo sapiens, UniProt P41595); type: cell membranes, CHO-K1, Membrane; conditions: cho-k1; note: in other assays of this panel Not Active means under 50% inhibition at 10 µM
Sequence (P41595 whole entry): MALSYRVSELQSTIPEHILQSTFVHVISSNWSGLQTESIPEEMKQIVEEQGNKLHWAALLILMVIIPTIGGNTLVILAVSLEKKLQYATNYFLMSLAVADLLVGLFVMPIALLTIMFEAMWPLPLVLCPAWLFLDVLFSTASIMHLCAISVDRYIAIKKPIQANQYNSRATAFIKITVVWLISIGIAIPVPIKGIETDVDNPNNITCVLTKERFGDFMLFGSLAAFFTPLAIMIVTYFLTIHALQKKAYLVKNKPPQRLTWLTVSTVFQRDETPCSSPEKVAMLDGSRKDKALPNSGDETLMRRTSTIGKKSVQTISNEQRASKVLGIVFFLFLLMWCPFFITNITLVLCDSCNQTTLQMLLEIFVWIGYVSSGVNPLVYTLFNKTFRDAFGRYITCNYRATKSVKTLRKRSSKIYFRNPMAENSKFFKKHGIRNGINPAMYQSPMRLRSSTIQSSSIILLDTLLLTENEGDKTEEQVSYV

Structure (SMILES) | IC50
CC12CCC(CC1)C(C)(C)O2 [EUCALYPTOL] | Not Active
Nc1nc(N)c2nc(CNc3ccc(C(=O)N[C@@H](CCC(=O)O)C(=O)O)cc3)cnc2n1 [AMINOPTERIN] | Not Active
Nc1ccc(Cc2ccc(N)cc2)cc1 | Not Active
CCN1CCN(c2cc3c(cc2F)c(=O)c(C(=O)O)cn3C2CC2)CC1 [ENROFLOXACIN] | Not Active
CC(C)Cc1ccc([C@H](C)C(=O)O)cc1 [DEXIBUPROFEN] | Not Active
CO[C@H]1O[C@@H]2O[C@@]3(C)CC[C@H]4[C@H](C)CC[C@@H]([C@H]1C)[C@@]24OO3 | Not Active
Nc1ccc(C(=O)O)c(O)c1 [AMINOSALICYLIC ACID] | Not Active

same assay, conditions: read-out: IC50

Structure (SMILES) | IC50
COc1ccccc1OCCNCC(O)COc1cccc2[nH]c3ccccc3c12 (stereo not drawn) [CARVEDILOL] | 0.023 µM

same assay, conditions: read-out: Ki

Structure (SMILES) | Ki
COc1ccccc1OCCNCC(O)COc1cccc2[nH]c3ccccc3c12 (stereo not drawn) [CARVEDILOL] | 0.015 µM

molecular target: T3, 5-hydroxytryptamine receptor 1A (Rattus norvegicus, UniProt P19327); type: cell membranes, CHO-K1, Membrane; conditions: cho-k1; note: in other assays of this panel Not Active means under 50% inhibition at 10 µM
T3 sequence (P19327 whole entry): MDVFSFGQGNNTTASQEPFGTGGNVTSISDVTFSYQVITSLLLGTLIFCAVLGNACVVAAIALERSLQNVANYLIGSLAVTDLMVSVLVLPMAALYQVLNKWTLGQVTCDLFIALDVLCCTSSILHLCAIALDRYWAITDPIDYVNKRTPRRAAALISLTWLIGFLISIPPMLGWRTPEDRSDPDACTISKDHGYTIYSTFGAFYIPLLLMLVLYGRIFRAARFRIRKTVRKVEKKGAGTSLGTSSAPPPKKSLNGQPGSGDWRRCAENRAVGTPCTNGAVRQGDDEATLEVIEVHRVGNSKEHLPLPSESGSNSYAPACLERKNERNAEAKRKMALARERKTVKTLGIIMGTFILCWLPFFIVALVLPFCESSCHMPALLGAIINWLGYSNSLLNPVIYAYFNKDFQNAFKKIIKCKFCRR

Structure (SMILES) | IC50
CC12CCC(CC1)C(C)(C)O2 [EUCALYPTOL] | Not Active
Nc1nc(N)c2nc(CNc3ccc(C(=O)N[C@@H](CCC(=O)O)C(=O)O)cc3)cnc2n1 [AMINOPTERIN] | Not Active
Nc1ccc(Cc2ccc(N)cc2)cc1 | Not Active
CCN1CCN(c2cc3c(cc2F)c(=O)c(C(=O)O)cn3C2CC2)CC1 [ENROFLOXACIN] | Not Active
CC(C)Cc1ccc([C@H](C)C(=O)O)cc1 [DEXIBUPROFEN] | Not Active
CO[C@H]1O[C@@H]2O[C@@]3(C)CC[C@H]4[C@H](C)CC[C@@H]([C@H]1C)[C@@]24OO3 | Not Active
Nc1ccc(C(=O)O)c(O)c1 [AMINOSALICYLIC ACID] | Not Active

same assay, conditions: read-out: IC50

Structure (SMILES) | IC50
COc1ccccc1OCCNCC(O)COc1cccc2[nH]c3ccccc3c12 (stereo not drawn) [CARVEDILOL] | 0.00584 µM

same assay, conditions: read-out: Ki

Structure (SMILES) | Ki
COc1ccccc1OCCNCC(O)COc1cccc2[nH]c3ccccc3c12 (stereo not drawn) [CARVEDILOL] | 0.00334 µM
